{
  "source": "paper PMC3885398",
  "about": "“Evaluation of the Antitumor Effects of BPR1J-340, a Potent and Selective FLT3 Inhibitor, Alone or in Combination with an HDAC Inhibitor, Vorinostat, in AML Cancer” (PLoS ONE, 2014)",
  "key": {"ABL1": {"biological_target": "T1, ABL1 (Homo sapiens, UniProt P00519)", "T1 construct": "purchased Invitrogen SelectScreen", "experiment": "Invitrogen SelectScreen kinase profiling", "type": "biochemical", "conditions": "100 nM", "experimental": "(§1) The FLT3 and VEGFR1/2 Kinase-Glo kinase assays were performed as reported by our earlier study. The VEGFR3 activity analysis was conducted using the same protocol described in the VEGFR1/2 assay. The kinase inhibition profiling and inhibitory activity of FLT3-D835Y, CSF1R, and TRKA were determined by Invitrogen SelectScreen® kinase profiling service (Carlsbad, California, USA).\n(§2) BPR1J-340, a urea-substituted 3-phenyl-1H-5-pyrazolylamine-based compound, was designed through chemical modification of sulfonamide series of derivatives (BPR1J-097 series) by a structure-activity relationship (SAR) study (Fig. 1), [32]. For kinase inhibition specificity screening, BPR1J-340 was tested against 59 protein kinases covering the major oncogenic kinases of human protein kinome. […] In addition, BPR1J-340 inhibited TRKA, which is associated with the growth and metastasis of breast cancers, with an IC50 value of 8 nM. Given the high similarity of the ATP binding pockets of FLT3 and the Aurora kinases, the inhibitory activity toward Aurora A and Aurora B were measured. […] Taken together, BPRJ-340 is a selective kinase inhibitor with in vitro activity against FLT3, VEGFR2, VEGFR3 and TRKA receptor tyrosine kinases."}, "ABL1 T315I": {"biological_target": "T2, ABL1 T315I (Homo sapiens, UniProt P00519, T315I)", "T2 construct": "purchased Invitrogen SelectScreen", "experiment": "Invitrogen SelectScreen kinase profiling", "type": "biochemical", "conditions": "100 nM", "experimental": "as §1, §2"}, "AURKC (Aurora C)": {"biological_target": "T3, AURKC (Aurora C) (Homo sapiens, UniProt Q9UQB9)", "T3 construct": "purchased Invitrogen SelectScreen", "experiment": "Invitrogen SelectScreen kinase profiling", "type": "biochemical", "conditions": "100 nM", "experimental": "as §1, §2"}, "BRAF": {"biological_target": "T4, BRAF (Homo sapiens, UniProt P15056)", "T4 construct": "purchased Invitrogen SelectScreen", "experiment": "Invitrogen SelectScreen kinase profiling", "type": "biochemical", "conditions": "100 nM", "experimental": "as §1, §2"}, "CDC42 BPA (MRCKA)": {"biological_target": "T5, CDC42 BPA (MRCKA) (Homo sapiens, UniProt Q5VT25)", "T5 construct": "purchased Invitrogen SelectScreen", "experiment": "Invitrogen SelectScreen kinase profiling", "type": "biochemical", "conditions": "100 nM", "experimental": "as §1, §2"}, "CDK2/cyclin A": {"biological_target": "T6, CDK2/cyclin A (Homo sapiens, UniProt P24941)", "T6 construct": "purchased Invitrogen SelectScreen", "experiment": "Invitrogen SelectScreen kinase profiling", "type": "biochemical", "conditions": "100 nM", "experimental": "as §1, §2"}, "CLK1": {"biological_target": "T7, CLK1 (Homo sapiens, UniProt P49759)", "T7 construct": "purchased Invitrogen SelectScreen", "experiment": "Invitrogen SelectScreen kinase profiling", "type": "biochemical", "conditions": "100 nM", "experimental": "as §1, §2"}, "CLK2": {"biological_target": "T8, CLK2 (Homo sapiens, UniProt P49760)", "T8 construct": "purchased Invitrogen SelectScreen", "experiment": "Invitrogen SelectScreen kinase profiling", "type": "biochemical", "conditions": "100 nM", "experimental": "as §1, §2"}, "FGFR1": {"biological_target": "T9, FGFR1 (Homo sapiens, UniProt P11362)", "T9 construct": "purchased Invitrogen SelectScreen", "T9 sequence (P11362 22-822)": "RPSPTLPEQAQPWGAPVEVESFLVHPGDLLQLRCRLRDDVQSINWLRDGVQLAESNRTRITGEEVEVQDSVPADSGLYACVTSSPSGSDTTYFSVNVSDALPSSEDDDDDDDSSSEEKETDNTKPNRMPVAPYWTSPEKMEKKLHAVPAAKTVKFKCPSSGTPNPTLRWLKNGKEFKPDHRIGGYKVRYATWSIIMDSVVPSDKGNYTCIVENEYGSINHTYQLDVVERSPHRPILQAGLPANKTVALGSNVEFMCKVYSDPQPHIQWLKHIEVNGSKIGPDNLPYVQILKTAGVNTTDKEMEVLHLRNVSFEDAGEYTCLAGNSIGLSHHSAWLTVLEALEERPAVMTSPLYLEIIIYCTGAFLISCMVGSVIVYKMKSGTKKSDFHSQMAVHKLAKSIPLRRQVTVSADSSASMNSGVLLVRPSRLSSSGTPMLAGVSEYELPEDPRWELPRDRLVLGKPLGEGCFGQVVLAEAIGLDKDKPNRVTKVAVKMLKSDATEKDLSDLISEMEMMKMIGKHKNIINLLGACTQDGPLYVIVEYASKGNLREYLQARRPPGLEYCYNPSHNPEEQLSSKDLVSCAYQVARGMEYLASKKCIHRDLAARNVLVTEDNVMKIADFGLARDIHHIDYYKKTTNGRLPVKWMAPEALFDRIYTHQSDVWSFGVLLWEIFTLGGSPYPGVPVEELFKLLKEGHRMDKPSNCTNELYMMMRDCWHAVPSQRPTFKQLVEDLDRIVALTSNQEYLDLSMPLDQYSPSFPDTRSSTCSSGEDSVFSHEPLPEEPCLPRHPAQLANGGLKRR", "experiment": "Invitrogen SelectScreen kinase profiling", "type": "biochemical", "conditions": "100 nM", "experimental": "as §1, §2"}, "IKBKE (IKK epsilon)": {"biological_target": "T10, IKBKE (IKK epsilon) (Homo sapiens, UniProt Q14164)", "T10 construct": "purchased Invitrogen SelectScreen", "experiment": "Invitrogen SelectScreen kinase profiling", "type": "biochemical", "conditions": "100 nM", "experimental": "as §1, §2"}, "JAK1": {"biological_target": "T11, JAK1 (Homo sapiens, UniProt P23458)", "T11 construct": "purchased Invitrogen SelectScreen", "experiment": "Invitrogen SelectScreen kinase profiling", "type": "biochemical", "conditions": "100 nM", "experimental": "as §1, §2"}, "JAK2": {"biological_target": "T12, JAK2 (Homo sapiens, UniProt O60674)", "T12 construct": "purchased Invitrogen SelectScreen", "experiment": "Invitrogen SelectScreen kinase profiling", "type": "biochemical", "conditions": "100 nM", "experimental": "as §1, §2"}, "KIT": {"biological_target": "T13, KIT (Homo sapiens, UniProt P10721)", "T13 construct": "purchased Invitrogen SelectScreen", "T13 sequence (P10721 26-976)": "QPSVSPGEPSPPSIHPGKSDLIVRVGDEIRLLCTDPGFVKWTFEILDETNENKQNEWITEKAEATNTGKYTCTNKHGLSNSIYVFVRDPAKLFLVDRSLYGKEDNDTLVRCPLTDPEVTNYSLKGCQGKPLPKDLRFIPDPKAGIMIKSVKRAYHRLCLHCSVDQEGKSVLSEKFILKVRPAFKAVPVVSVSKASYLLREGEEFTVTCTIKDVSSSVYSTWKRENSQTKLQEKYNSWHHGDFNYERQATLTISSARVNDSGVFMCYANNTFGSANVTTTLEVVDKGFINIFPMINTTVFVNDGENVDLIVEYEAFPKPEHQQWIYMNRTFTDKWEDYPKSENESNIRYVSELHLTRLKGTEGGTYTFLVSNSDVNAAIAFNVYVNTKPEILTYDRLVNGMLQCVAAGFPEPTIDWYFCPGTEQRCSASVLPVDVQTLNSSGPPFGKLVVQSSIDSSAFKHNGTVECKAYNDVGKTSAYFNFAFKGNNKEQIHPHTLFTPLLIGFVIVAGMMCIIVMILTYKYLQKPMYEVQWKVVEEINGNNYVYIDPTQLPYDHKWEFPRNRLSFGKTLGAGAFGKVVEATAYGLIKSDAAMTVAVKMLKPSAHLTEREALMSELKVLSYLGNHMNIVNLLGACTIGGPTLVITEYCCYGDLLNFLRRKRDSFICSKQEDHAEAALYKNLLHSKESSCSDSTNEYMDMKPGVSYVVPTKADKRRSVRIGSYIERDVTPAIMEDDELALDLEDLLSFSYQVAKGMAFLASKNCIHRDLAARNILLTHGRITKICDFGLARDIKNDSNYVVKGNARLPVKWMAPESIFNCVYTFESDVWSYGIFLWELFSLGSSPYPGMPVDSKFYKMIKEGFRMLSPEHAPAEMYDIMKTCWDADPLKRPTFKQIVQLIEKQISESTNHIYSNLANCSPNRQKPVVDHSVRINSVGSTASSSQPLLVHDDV", "experiment": "Invitrogen SelectScreen kinase profiling", "type": "biochemical", "conditions": "100 nM", "experimental": "as §1, §2"}, "MAPK14 (p38 alpha)": {"biological_target": "T14, MAPK14 (p38 alpha) (Homo sapiens, UniProt Q16539)", "T14 construct": "purchased Invitrogen SelectScreen", "experiment": "Invitrogen SelectScreen kinase profiling", "type": "biochemical", "conditions": "100 nM", "experimental": "as §1, §2"}, "MET (cMet)": {"biological_target": "T15, MET (cMet) (Homo sapiens, UniProt P08581)", "T15 construct": "purchased Invitrogen SelectScreen", "experiment": "Invitrogen SelectScreen kinase profiling", "type": "biochemical", "conditions": "100 nM", "experimental": "as §1, §2"}, "NEK1": {"biological_target": "T16, NEK1 (Homo sapiens, UniProt Q96PY6)", "T16 construct": "purchased Invitrogen SelectScreen", "experiment": "Invitrogen SelectScreen kinase profiling", "type": "biochemical", "conditions": "100 nM", "experimental": "as §1, §2"}, "NEK2": {"biological_target": "T17, NEK2 (Homo sapiens, UniProt P51955)", "T17 construct": "purchased Invitrogen SelectScreen", "experiment": "Invitrogen SelectScreen kinase profiling", "type": "biochemical", "conditions": "100 nM", "experimental": "as §1, §2"}, "PDGFRB (PDGFR beta)": {"biological_target": "T18, PDGFRB (PDGFR beta) (Homo sapiens, UniProt P09619)", "T18 construct": "purchased Invitrogen SelectScreen", "experiment": "Invitrogen SelectScreen kinase profiling", "type": "biochemical", "conditions": "100 nM", "experimental": "as §1, §2"}, "RAF1 (cRAF) Y340D Y341D": {"biological_target": "T19, RAF1 (cRAF) Y340D Y341D (Homo sapiens, UniProt P04049, Y340D/Y341D)", "T19 construct": "purchased Invitrogen SelectScreen", "experiment": "Invitrogen SelectScreen kinase profiling", "type": "biochemical", "conditions": "100 nM", "experimental": "as §1, §2"}, "RPS6KA2 (RSK3)": {"biological_target": "T20, RPS6KA2 (RSK3) (Homo sapiens, UniProt Q15349)", "T20 construct": "purchased Invitrogen SelectScreen", "T20 sequence (Q15349 whole entry)": "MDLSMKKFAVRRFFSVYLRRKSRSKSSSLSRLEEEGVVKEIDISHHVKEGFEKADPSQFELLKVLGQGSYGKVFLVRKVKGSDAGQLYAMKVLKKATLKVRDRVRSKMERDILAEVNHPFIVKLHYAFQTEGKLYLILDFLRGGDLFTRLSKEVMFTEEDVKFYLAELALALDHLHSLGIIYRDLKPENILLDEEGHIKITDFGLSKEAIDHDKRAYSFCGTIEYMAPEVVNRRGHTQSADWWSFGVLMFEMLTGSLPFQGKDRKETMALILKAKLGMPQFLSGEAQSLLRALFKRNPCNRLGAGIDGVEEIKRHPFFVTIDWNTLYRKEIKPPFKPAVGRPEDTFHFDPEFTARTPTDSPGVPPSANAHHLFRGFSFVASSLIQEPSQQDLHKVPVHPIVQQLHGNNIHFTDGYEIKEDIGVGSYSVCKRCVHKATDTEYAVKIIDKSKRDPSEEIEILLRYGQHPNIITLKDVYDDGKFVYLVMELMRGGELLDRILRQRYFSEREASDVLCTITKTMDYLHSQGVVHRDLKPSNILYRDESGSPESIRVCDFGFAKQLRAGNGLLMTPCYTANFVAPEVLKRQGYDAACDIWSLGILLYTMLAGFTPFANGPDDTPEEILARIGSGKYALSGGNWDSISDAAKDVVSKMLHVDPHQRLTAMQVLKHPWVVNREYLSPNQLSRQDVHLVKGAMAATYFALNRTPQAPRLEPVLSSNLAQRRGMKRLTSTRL", "experiment": "Invitrogen SelectScreen kinase profiling", "type": "biochemical", "conditions": "100 nM", "experimental": "as §1, §2"}, "RPS6KA5 (MSK1)": {"biological_target": "T21, RPS6KA5 (MSK1) (Homo sapiens, UniProt O75582)", "T21 construct": "purchased Invitrogen SelectScreen", "T21 sequence (O75582 whole entry)": "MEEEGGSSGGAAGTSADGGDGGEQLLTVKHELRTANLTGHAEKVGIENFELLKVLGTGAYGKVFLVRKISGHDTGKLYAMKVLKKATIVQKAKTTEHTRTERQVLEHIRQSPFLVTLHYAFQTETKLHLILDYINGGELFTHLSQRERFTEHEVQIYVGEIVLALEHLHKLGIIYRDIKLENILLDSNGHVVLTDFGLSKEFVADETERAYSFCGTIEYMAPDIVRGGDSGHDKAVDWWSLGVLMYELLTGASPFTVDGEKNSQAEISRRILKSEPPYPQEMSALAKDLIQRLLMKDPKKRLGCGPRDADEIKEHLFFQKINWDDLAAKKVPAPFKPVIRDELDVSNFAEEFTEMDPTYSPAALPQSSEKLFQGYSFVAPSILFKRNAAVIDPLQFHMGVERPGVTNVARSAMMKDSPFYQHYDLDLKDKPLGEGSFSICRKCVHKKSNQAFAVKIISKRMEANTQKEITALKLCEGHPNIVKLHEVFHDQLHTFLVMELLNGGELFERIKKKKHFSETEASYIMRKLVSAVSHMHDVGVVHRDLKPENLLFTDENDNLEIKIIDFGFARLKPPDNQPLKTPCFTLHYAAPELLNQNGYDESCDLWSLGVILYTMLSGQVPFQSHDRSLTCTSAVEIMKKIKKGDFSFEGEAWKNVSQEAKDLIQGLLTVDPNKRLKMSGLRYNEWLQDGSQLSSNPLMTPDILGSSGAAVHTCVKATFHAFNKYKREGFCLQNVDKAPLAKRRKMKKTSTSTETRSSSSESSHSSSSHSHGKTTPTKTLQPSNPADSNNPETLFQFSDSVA", "experiment": "Invitrogen SelectScreen kinase profiling", "type": "biochemical", "conditions": "100 nM", "experimental": "as §1, §2"}, "SGK (SGK1)": {"biological_target": "T22, SGK (SGK1) (Homo sapiens, UniProt O00141)", "T22 construct": "purchased Invitrogen SelectScreen", "experiment": "Invitrogen SelectScreen kinase profiling", "type": "biochemical", "conditions": "100 nM", "experimental": "as §1, §2"}, "SGK2": {"biological_target": "T23, SGK2 (Homo sapiens, UniProt Q9HBY8)", "T23 construct": "purchased Invitrogen SelectScreen", "experiment": "Invitrogen SelectScreen kinase profiling", "type": "biochemical", "conditions": "100 nM", "experimental": "as §1, §2"}, "SGKL (SGK3)": {"biological_target": "T24, SGKL (SGK3) (Homo sapiens, UniProt Q96BR1)", "T24 construct": "purchased Invitrogen SelectScreen", "T24 sequence (Q96BR1 whole entry)": "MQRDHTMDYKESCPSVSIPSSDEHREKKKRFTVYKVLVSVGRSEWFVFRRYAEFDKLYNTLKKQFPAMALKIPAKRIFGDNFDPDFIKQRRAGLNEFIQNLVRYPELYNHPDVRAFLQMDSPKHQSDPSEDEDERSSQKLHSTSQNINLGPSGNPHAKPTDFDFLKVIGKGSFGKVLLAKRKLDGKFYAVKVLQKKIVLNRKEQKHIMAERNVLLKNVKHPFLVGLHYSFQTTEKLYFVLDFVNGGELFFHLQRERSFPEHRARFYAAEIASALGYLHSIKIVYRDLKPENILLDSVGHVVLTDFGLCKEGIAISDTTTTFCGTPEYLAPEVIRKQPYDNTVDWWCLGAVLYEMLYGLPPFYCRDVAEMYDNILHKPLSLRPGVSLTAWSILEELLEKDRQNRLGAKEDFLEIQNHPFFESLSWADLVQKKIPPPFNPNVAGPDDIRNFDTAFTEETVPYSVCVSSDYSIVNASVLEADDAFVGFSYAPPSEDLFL", "experiment": "Invitrogen SelectScreen kinase profiling", "type": "biochemical", "conditions": "100 nM", "experimental": "as §1, §2"}, "TYK2": {"biological_target": "T25, TYK2 (Homo sapiens, UniProt P29597)", "T25 construct": "purchased Invitrogen SelectScreen", "T25 sequence (P29597 whole entry)": "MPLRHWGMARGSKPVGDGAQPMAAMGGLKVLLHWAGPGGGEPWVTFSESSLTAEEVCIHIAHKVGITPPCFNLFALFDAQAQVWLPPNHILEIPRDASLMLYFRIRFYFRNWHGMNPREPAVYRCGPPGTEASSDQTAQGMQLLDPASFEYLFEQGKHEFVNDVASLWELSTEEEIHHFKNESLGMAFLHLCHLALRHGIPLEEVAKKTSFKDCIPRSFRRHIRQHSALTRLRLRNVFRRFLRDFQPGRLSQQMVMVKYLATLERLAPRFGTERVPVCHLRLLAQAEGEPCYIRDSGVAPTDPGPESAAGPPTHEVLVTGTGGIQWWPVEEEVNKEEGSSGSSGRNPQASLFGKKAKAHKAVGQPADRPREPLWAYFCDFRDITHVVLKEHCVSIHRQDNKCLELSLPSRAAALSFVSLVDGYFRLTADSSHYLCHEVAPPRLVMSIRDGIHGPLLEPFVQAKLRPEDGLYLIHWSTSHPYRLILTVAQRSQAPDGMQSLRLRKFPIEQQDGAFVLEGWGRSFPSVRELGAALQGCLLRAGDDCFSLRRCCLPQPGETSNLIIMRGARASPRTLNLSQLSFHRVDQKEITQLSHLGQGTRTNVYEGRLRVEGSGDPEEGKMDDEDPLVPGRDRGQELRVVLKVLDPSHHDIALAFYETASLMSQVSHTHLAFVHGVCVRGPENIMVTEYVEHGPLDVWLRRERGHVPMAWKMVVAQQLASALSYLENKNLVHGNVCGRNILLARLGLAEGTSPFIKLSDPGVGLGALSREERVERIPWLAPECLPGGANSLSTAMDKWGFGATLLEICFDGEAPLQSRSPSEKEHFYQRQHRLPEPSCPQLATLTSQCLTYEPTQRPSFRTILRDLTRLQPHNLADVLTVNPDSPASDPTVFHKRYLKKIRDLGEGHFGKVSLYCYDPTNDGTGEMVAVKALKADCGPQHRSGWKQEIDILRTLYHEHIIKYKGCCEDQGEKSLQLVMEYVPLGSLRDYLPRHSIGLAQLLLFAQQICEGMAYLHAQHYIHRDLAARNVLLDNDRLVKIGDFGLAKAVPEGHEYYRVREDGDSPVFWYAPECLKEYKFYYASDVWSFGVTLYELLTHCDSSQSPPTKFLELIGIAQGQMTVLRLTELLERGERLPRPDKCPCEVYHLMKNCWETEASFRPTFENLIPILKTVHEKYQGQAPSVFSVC", "experiment": "Invitrogen SelectScreen kinase profiling", "type": "biochemical", "conditions": "100 nM", "experimental": "as §1, §2"}, "MOLM-13 cells": {"test_system": "MOLM-13 cells", "experiment": "Apoptosis induction, caspase-3 and PARP cleavage by Western blot", "type": "cell-based, human", "conditions": "MOLM-13, 10 nM, 24 hours", "experimental": "(§3) Cells were lysed in lysis buffer (50 mM Tris, pH 8.0, 150 mM NaCl, 1% Triton X-100, 0.5% sodium deoxycholate, 0.1% SDS, 1 mM sodium orthovanadate, 1 mM PMSF, and 1 mM DTT). Protein lysates were resolved by SDS-PAGE and transferred onto a polyvinylidene difluoride (PVDF) membrane (Millipore, Bedford, MA, USA). The membranes were immunoblotted with appropriate antibodies and detected using the SuperSignal reagent (Pierce, Rockford, IL, USA) followed by exposure to X-ray film.\n(§4) As the inhibition of FLT3 signaling results in a loss of growth potential and an induction of apoptosis in FLT3-ITD expressing cells, the effects of BPR1J-340 on cell apoptotic response in FLT3-ITD^+ cells was investigated. The MOLM-13 and MV4;11 cells were treated with BPR1J-340 at different concentrations for 24 hours and analyzed for the induction of apoptosis using active caspase-3 and cleaved PARP (poly-ADP-ribose polymerase) analysis.\n(§5) Figure 3 BPR1J-340 induces apoptosis in MOLM-13 and MV4;11 cells. […] MOLM-13 (A) and MV4;11 (B) cells were treated with BPR1J-340 at the indicated concentrations for 24 hours, and the cell lysates were then subjected to Western blot analysis using antibodies against caspase-3 and PARP (poly-ADP-ribose polymerase). (full length caspase-3 (FL-caspase-3), cleavage of caspase-3 (CL-caspase-3), full length poly(ADP-ribose) polymerase (FL-PARP), cleavage of PARP (CL-PARP))."}, "MV4;11 cells": {"test_system": "MV4;11 cells", "experiment": "Apoptosis induction, caspase-3 and PARP cleavage by Western blot", "type": "cell-based, human", "conditions": "MV4;11, 10 nM, 24 hours", "experimental": "as §3, §4, §5"}},
  "data": [
    {"smiles": "CCc1cc(NC(=O)NCc2ccc(-c3cc(NC(=O)c4ccc(CN5CCN(C)CC5)cc4)[nH]n3)cc2)no1", "note": "[BPR1J-340, N1-(3-4-[([(5-ethyl-3-isoxazolyl)amino]carbonylamino)methyl]phenyl-1H-5-pyrazolyl)-4-[(4-methylpiperazino)methyl]benzamide]", "values": [
      {"measurement": "inhibition at 0.1 µM", "setting": "ABL1", "result": 7, "unit": "%"},
      {"measurement": "inhibition at 0.1 µM", "setting": "ABL1 T315I", "result": 15, "unit": "%"},
      {"measurement": "inhibition at 0.1 µM", "setting": "AURKC (Aurora C)", "result": 19, "unit": "%"},
      {"measurement": "inhibition at 0.1 µM", "setting": "BRAF", "result": 5, "unit": "%"},
      {"measurement": "inhibition at 0.1 µM", "setting": "CDC42 BPA (MRCKA)", "result": -8, "unit": "%"},
      {"measurement": "inhibition at 0.1 µM", "setting": "CDK2/cyclin A", "result": 5, "unit": "%"},
      {"measurement": "inhibition at 0.1 µM", "setting": "CLK1", "result": 6, "unit": "%"},
      {"measurement": "inhibition at 0.1 µM", "setting": "CLK2", "result": -7, "unit": "%"},
      {"measurement": "inhibition at 0.1 µM", "setting": "FGFR1", "result": 17, "unit": "%"},
      {"measurement": "inhibition at 0.1 µM", "setting": "IKBKE (IKK epsilon)", "result": 21, "unit": "%"},
      {"measurement": "inhibition at 0.1 µM", "setting": "JAK1", "result": -3, "unit": "%"},
      {"measurement": "inhibition at 0.1 µM", "setting": "JAK2", "result": 9, "unit": "%"},
      {"measurement": "inhibition at 0.1 µM", "setting": "KIT", "result": 66, "unit": "%"},
      {"measurement": "inhibition at 0.1 µM", "setting": "MAPK14 (p38 alpha)", "result": 24, "unit": "%"},
      {"measurement": "inhibition at 0.1 µM", "setting": "MET (cMet)", "result": 17, "unit": "%"},
      {"measurement": "inhibition at 0.1 µM", "setting": "NEK1", "result": -6, "unit": "%"},
      {"measurement": "inhibition at 0.1 µM", "setting": "NEK2", "result": 2, "unit": "%"},
      {"measurement": "inhibition at 0.1 µM", "setting": "PDGFRB (PDGFR beta)", "result": 39, "unit": "%"},
      {"measurement": "inhibition at 0.1 µM", "setting": "RAF1 (cRAF) Y340D Y341D", "result": 4, "unit": "%"},
      {"measurement": "inhibition at 0.1 µM", "setting": "RPS6KA2 (RSK3)", "result": 9, "unit": "%"},
      {"measurement": "inhibition at 0.1 µM", "setting": "RPS6KA5 (MSK1)", "result": 16, "unit": "%"},
      {"measurement": "inhibition at 0.1 µM", "setting": "SGK (SGK1)", "result": 11, "unit": "%"},
      {"measurement": "inhibition at 0.1 µM", "setting": "SGK2", "result": 22, "unit": "%"},
      {"measurement": "inhibition at 0.1 µM", "setting": "SGKL (SGK3)", "result": 12, "unit": "%"},
      {"measurement": "inhibition at 0.1 µM", "setting": "TYK2", "result": 23, "unit": "%"},
      {"measurement": "cleavage of caspase-3 and PARP (apoptosis)", "setting": "MOLM-13 cells", "result": "significant cleavage"},
      {"measurement": "cleavage of caspase-3 and PARP (apoptosis)", "setting": "MV4;11 cells", "result": "significant cleavage"}
    ]}
  ]
}
